One series has as its system HIV-1LPV^R5μM. Nature of the series: microbe, parasite or virus in culture. In kind it is cell-based. The note with it: for EC50: Human immunodeficiency virus 1, MT4, read-out: EC50 HIV-1LPV^R5μM. The method, then:
(§1) The susceptibility of HIV-1LAI to various drugs was determined as previously described with minor modifications. Briefly, MT-2 cells (10^4/ml) were exposed to 100 50% tissue culture infectious doses (TCID50) of HIV-1LAI in the presence or absence of various concentrations of drugs in 96-well microculture plates and were incubated at 37° C. for 7 days. After 100 μl of the medium was removed from each well, 3-(4,5-dimetylthiazol-2-yl)-2,5-diphenyltetrazolium bromide (MTT) solution (10 μl, 7.5 mg/ml in phosphate-buffered saline) was added to each well in the plate, followed by incubation at 37° C. for 2 h. […] All assays were performed in duplicate or triplicate. […] To determine the sensitivity of primary HIV-1 isolates to drugs, phytohemagglutinin-stimulated peripheral blood mononuclear cells (PHA-PBMC) (10^6/ml) were exposed to 50 TCID50 of each primary HIV-1 isolate and cultured in the presence or absence of various concentrations of drugs in 10-fold serial dilutions in 96-well microculture plates. In determining the drug susceptibility of certain laboratory HIV-1 strains, MT-4 cells were employed as target cells as previously described with minor modifications. In brief, MT-4 cells (10^5/ml) were exposed to 100 TCID50 of drug-resistant HIV-1 strains in the presence or absence of various concentrations of drugs and were incubated at 37° C. On day 7 of culture, the supernatants were harvested and the amounts of p24 Gag protein were determined by using a fully automated chemiluminescent enzyme immunoassay system (Lumipulse F: Fujirebio Inc., Tokyo). […] All assays were performed in duplicate or triplicate. PHA-PBMs were derived from a single donor in each independent experiment. Thus, for obtaining the data, three different donors were recruited.

Another series has as its system HIV-1ATV^R5μM. In words: microbe, parasite or virus in culture. The class given is cell-based. The note with it: for EC50: Human immunodeficiency virus 1, MT4, read-out: EC50 HIV-1ATV^R5μM. As to the method:
as §1

The next series relates to HIV-1SQV^R5μM. In words: microbe, parasite or virus in culture. The class given is cell-based. The note with it: for EC50: Human immunodeficiency virus 1, MT4, read-out: EC50 HIV-1SQV^R5μM. The method, then:
as §1

The subject of a further series is HIV-1APV^R5μM. Nature of the series: microbe, parasite or virus in culture. The note with it: Human immunodeficiency virus 1, MT4, read-out: EC50 HIV-1APV^R5μM. In kind it is cell-based. As to the method:
as §1

The next series has as its system HIV-1MDR/JSL. In words: microbe, parasite or virus in culture. The class given is cell-based. The note with it: for EC50: Human immunodeficiency virus 1, read-out: EC50 HIV-1MDR/JSL (R5). The method, then: (§2) All primary HIV-1 strains were passaged once or twice in 3-day-old phytohemagglutinin activated peripheral blood mononuclear cells (PHA-PBM), and the culture supernatants were stored at −80° C. until use.
as §1

The subject of a further series is HIV-1MDR/MM. Nature of the series: microbe, parasite or virus in culture. In kind it is cell-based. The conditions noted are these: for EC50: Human immunodeficiency virus 1, read-out: EC50 HIV-1MDR/MM (R5). As to the method:
as §2, §1

The test system of another series is HIV-1MDR/C. In words: microbe, parasite or virus in culture. The note with it: for EC50: Human immunodeficiency virus 1, read-out: EC50 HIV-1MDR/C (X4). The class given is cell-based. As to the method: as §2, §1
A further series concerns HIV-1MDR/G. In words: microbe, parasite or virus in culture. The class given is cell-based. The conditions noted are these: for EC50: Human immunodeficiency virus 1, read-out: EC50 HIV-1MDR/G (X4). As to the method: as §2, §1
The next series concerns HIV-1MDR/TM. Nature of the series: microbe, parasite or virus in culture. The class given is cell-based. The conditions noted are these: for EC50: Human immunodeficiency virus 1, read-out: EC50 HIV-1MDR/TM (X4). The method, then: as §2, §1
For another series, the system named is HIV-1MDR/B. In words: microbe, parasite or virus in culture. The class given is cell-based. The method, then:
as §2, §1

For a further series, the system named is HIV-1ERS104pre. In words: p24 Gag production inhibition in PHA-PBMs, wild-type clinical isolate. In kind it is cell-based. The note with it: Human immunodeficiency virus 1, read-out: EC50 HIV-1ERS104pre (X4). As to the method:
as §2, §1

The nature of series [1]: Partition and distribution coefficients, shake-flask method. In kind it is physicochemical. The note with it: shake flask method. The method, then:
On day −1 of the experimental setting, saturation of 1-octanol (CH3 (CH2)6CH2OH) (Nacalai Tesque, Kyoto, Japan) water and tris-buffered saline (10X working solution 20 mM Tris, pH 7.4 and 0.9% NaCl, Sigma-Aldrich, St. Louis, Mo.) took place. Four different flasks were used: One containing 50 ml of water plus 100 ml of 1-octanol, the second flask contained 1-octanol saturated with water adding 50 ml of 1-octanol and 100 ml of water. The same ratios and volumes were kept for 1-octanol saturated with tris-buffer and tris-buffer saturated with 1-octanol. The flasks were sealed and placed into a room temperature bio shaker for 24 hours at 90 revolutions per minute. […] Successive dilutions were made to obtain concentrations of 10 μM, 1 μM and 0.1 μM. A standard curve was generated on a light spectrophotometer (DU Series 700, Beckman Coulter Fullerton, Calif.) at 230 nanometer absorbances.
On day 1 of the experiment, the lipid and liquid interfaces were separated, and compounds were diluted again from 20 mM DMSO to 100 μM using the 1-octanol, water and Tris-buffered saline obtained from the shake-flask assay. The resulting diluted compounds were then added to separate serum tubes containing equal proportions of 1-octanol and water, and 1-octanol and Tris-buffered saline. The solution was handshaken for 5 minutes and then centrifuged at 3,500 rpm and room temperature for 20 minutes. Finally, the compounds were recovered from the 1-octanol, Tris-buffer and water interfaces and then measured on a light spectrophotometer.
The values for logP and logD were obtained by applying the following mathematical formulas: […]
The addition of fluorine atoms is generally expected to confer greater lipophilicity on nucleoside analogs and certain compounds (37-39). […] 1-Octanol, organic alcohol, and water were used for logP determination, while tris-buffered saline (pH 7.4) and water were utilized for logD determination. Prior to obtaining the actual values, a standard curve was generated as a reference and drug concentrations attained for each compartment (1-octanol, water and tris-buffered saline) were measured on a light spectrophotometer (at 230 nanometer absorbance) as previously described by Rak et al. (40).
DRV was used as a control. N-octanol, an organic alcohol, and water were used for logP determination, while tris buffer and water were utilized for the logD assay. Prior to the retrieval of actual values a standard curve was generated as a reference. The drug concentrations for each compartment (octanol, water and tris buffer) were measured at 230 nanometer absorbances using a light spectrophotometer. Assay was performed following the OECD guidelines for testing of chemicals “Partition coefficient (n-octanol-water): shake flask method”, adopted by the council on 27 Jul. 1995.^(a) n-octanol used for logPOW determination;^(b) n-octanol used for logD assay. The formulas

Each structure is given as a SMILES string.

Regarding `COC(=O)N[C@H](C(=O)N[C@@H](Cc1ccccc1)[C@@H](O)CN(Cc1ccc(-c2ccccn2)cc1)NC(=O)[C@@H](NC(=O)OC)C(C)(C)C)C(C)(C)C` [ATV, Atazanavir], the EC50 is 33 nM in the series with HIV-1LPV^R5μM; more than 1000 nM in the series on HIV-1ATV^R5μM; more than 1000 nM in the series with HIV-1SQV^R5μM; 660 ± 20 nM with HIV-1APV^R5μM; more than 1000 nM with HIV-1MDR/JSL; 81 nM in the series with HIV-1MDR/MM. Moreover, the EC50 in the series on HIV-1MDR/C came to 430 nM; in the series on HIV-1MDR/G, 42 nM; in the series on HIV-1MDR/TM, 56 nM; with HIV-1MDR/B (Human immunodeficiency virus 1, read-out: EC50 HIV-1MDR/B (X4)), 450 nM; in the series with HIV-1ERS104pre, 2.1 nM. In addition, the “fold change of EC50 HIV-1LPV^R5μM vs HIV-1NL4-3” value in the series with HIV-1LPV^R5μM (number in parentheses) was found to be 8 fold. In addition, in the series with HIV-1ATV^R5μM (number in parentheses), the “fold change of EC50 HIV-1ATV^R5μM vs HIV-1NL4-3” value is reported as more than 250 fold. Also, the “fold change of EC50 HIV-1SQV^R5μM vs HIV-1NL4-3” value in the series with HIV-1SQV^R5μM (number in parentheses) is recorded as more than 250 fold. For the same compound, in the series with HIV-1MDR/JSL (number in parentheses), the “fold change of EC50 HIV-1MDR/JSL vs HIV-1ERS104pre” value was more than 476 fold. Further, in the series with HIV-1MDR/MM (number in parentheses), the “fold change of EC50 HIV-1MDR/MM vs HIV-1ERS104pre” value turned out to be 38 fold. Moreover, in the series with HIV-1MDR/C (number in parentheses), the “fold change of EC50 HIV-1MDR/C vs HIV-1ERS104pre” value was determined as 204 fold. The “fold change of EC50 HIV-1MDR/G vs HIV-1ERS104pre” value in the series on HIV-1MDR/G (number in parentheses) is listed as 19 fold. For the same compound, in the series with HIV-1MDR/TM (number in parentheses), the “fold change of EC50 HIV-1MDR/TM vs HIV-1ERS104pre” value was determined as 24 fold. The “fold change of EC50 HIV-1MDR/B vs HIV-1ERS104pre” value with HIV-1MDR/B (number in parentheses) is on record as 214 fold.
As for `CC(C)CN(C[C@@H](O)[C@H](Cc1ccccc1)NC(=O)O[C@H]1CO[C@H]2OCC[C@H]21)S(=O)(=O)c1ccc(N)cc1` [DRV, darunavir], the EC50 in the series on HIV-1LPV^R5μM is 32 nM; in the series with HIV-1ATV^R5μM, 50 nM; with HIV-1SQV^R5μM, 40 nM; with HIV-1APV^R5μM, 510 nM; in the series on HIV-1MDR/JSL, 25 nM; in the series with HIV-1MDR/MM, 10 nM. Besides, the EC50 in the series with HIV-1MDR/C was 5 nM; in the series on HIV-1MDR/G it was 14 nM; in the series on HIV-1MDR/TM, 30 nM; in the series on HIV-1ERS104pre, 4 nM. The “Log POW (Octanol/Water)” value in series [1] was −0.63.

The record behind these values is US9346820B2, “HIV-1 protease inhibitors having gem-di-fluoro bicyclic P2-ligands” (priority 2013, dated 2016).
